These results are taken from patent US11236053B2, “NADPH oxidase inhibitors and uses thereof” (Emory University, priority 2017, dated 2022).

For one data set, the system named is Nox4 mRNA. The data set can be described thus: Nox4 mRNA qPCR assay in TGF-β-stimulated cells. In kind it is cell-based, human. The note with it: preincubation, same range of concentrations as FIG. 11, TGF-β stimulated. For orientation: Real-time PCR tracks product formation cycle by cycle.
The nature of data set [1]: Hydrogen peroxide scavenging assay (Amplex Red). The following applies: in vitro, concentrations up to 100 μM, 5 μM exogenous hydrogen peroxide. Type of data set: biochemical. The protocol: (§1) ROS scavenging by sulfonylurea compound 23, 24, or 25 was assessed in vitro. Superoxide was generated with xanthine/xanthine oxidase and measured using the cytochrome C assay. In addition, 5 μM hydrogen peroxide was added exogenously and measured using the Amplex Red™ assay. ROS were measured in the presence of indicated concentrations of each compound or DMSO solvent. Bars represent means±SEM of 4 (superoxide) or 3 (hydrogen peroxide) independent experiments. Differences between DMSO and sulfonylurea compounds are not significant.
(§2) To assess ROS scavenging, the consumption of superoxide, generated by xanthine/xanthine oxidase, or of exogenous hydrogen peroxide, was measured by increasing concentrations of the compounds of interest.
Hydrogen peroxide was measured in vitro, using an Amplex Red™ assay kit (Invitrogen), according to the manufacturer's instructions. This assay measures the oxidation of Amplex Red™ (10-acetyl-3,7-dihydroxyphenoxazine) to fluorescent resorufin in the presence of horseradish peroxidase. Briefly, H2O2 ([…]) was added to various concentrations (1-100 μM) of the compounds under study in reaction buffer. After an incubation of 5 min, Amplex Red™ was added to measure remaining H2O2. Reactions were incubated for 30 min at room temperature, protected from light. Resorufin fluorescence was measured in a microplate reader (Biotek) using excitation at 530 nm and emission at 590 nm.

Data set [2] in a line: Superoxide scavenging assay (xanthine/xanthine oxidase, cytochrome C). The note with it: in vitro, concentrations up to 100 μM, superoxide from xanthine/xanthine oxidase. Type of data set: biochemical. The protocol: as §1, §2
An assay was developed based on the measurement of superoxide-dependent changes in cytochrome C absorbance at 550 nm. Briefly, superoxide was generated in vitro in phosphate buffered saline solution, using hypoxanthine (100 μM)/xanthine oxidase (6×10^3 U/mL) in the presence of catalase (200 U/mL) to eliminate H2O2. Compounds under study were added at various concentrations (1-100 μM) and remaining superoxide was measured with cytochrome C (46 μM). Superoxide dismutase (575 U/mL) was used as a positive control in separate samples measured at the same time. Following a 1 min stabilization period, absorbance was measured at 550 nm in a microplate reader (Biotek), using a kinetic program (1 read/min) for 15 min. The linear slope representing the rate of superoxide production was used to calculate the percentage of superoxide scavenging.

The next data set has as its system Nox4-dependent signaling. As to the kind of experiment: TGF-β-induced α-SMA upregulation in human aortic smooth muscle cells (Western blot). Type of data set: cell-based. The following applies: HASMCs pretreated 30 min, TGF-β 24 h, Western blot normalized to β-tubulin. The procedure: Human aortic smooth muscle cells in culture were incubated with indicated concentrations of compound 23, 24, or 25 and stimulated with 2 ng/ml TGF-β for 24 h to induce a Nox4-dependent upregulation of smooth muscle alpha-actin (α-SMA). Protein expression was measured by Western blotting and normalized to β-tubulin. In the absence of inhibitor, α-SMA induction by TGF-β was maximal (100%).
Cells were pretreated with a candidate inhibitor 30 min before exposure to TGF-β and harvested after 24 h. Actin expression was measured by western blotting with a specific antibody.

Data set [3] concerns human aortic smooth muscle cells. As to the kind of experiment: Mammalian cell live/dead viability assay. The note with it: TGF-β stimulated, n=6. In kind it is cell-based. The procedure:
To rule out a possible toxic effect of these compounds in cultured cells, cell viability was measured using a commercial mammalian cell live/dead assay. Stimulation with TGF-β alone had no effect on cell viability (99±0.61%, P=NS, n=4).

For the next data set, the system named is hippocampal brain slices. The following applies: hippocampal brain slices treated with Nox 4 inhibitors; cited from earlier work.

Each structure is given as a SMILES string.

For orientation: cell viability means the share of living cells, or the viability signal relative to a control. A high value points to better survival. With `COc1ccc(S(=O)(=O)N2CCN(c3ccc(C(F)(F)F)cc3)C2=O)cc1` [Compound 25, 1-((4-Methoxyphenyl)sulfonyl)-3-(4-(trifluoromethyl)phenyl)-imidazolidin-2-one], the “effect on Nox4 expression (Nox4 mRNA)” value in the data set on Nox4 mRNA was “did not affect”. In addition, in data set [1], the “effect on hydrogen peroxide (ROS scavenging)” value (shortened to “effect on hydrogen peroxide”) is reported as “no effect”. For the same compound, the “effect on superoxide (ROS scavenging)” value in data set [2] is on record as “no effect”. Besides, in the data set with Nox4-dependent signaling, the “inhibition of Nox4-dependent signaling (α-SMA expression)” value (shortened to “inhibition of Nox4-dependent signaling”) is recorded as “profoundly inhibiting”. Further, the cell viability in data set [3] (10 μM preincubation) amounted to 97±2.50%.
With `COc1ccc(S(=O)(=O)N2CCCN(c3ccc(C(F)(F)F)cc3)C2=O)cc1` [Compound 23, 1-((4-Methoxyphenyl)sulfonyl)-3-(4-(trifluoromethyl)phenyl)-tetrahydropyrimidin-2(1H)-one], in the data set on Nox4 mRNA, the “effect on Nox4 expression (Nox4 mRNA)” value was “did not affect”. In addition, the “effect on hydrogen peroxide” value in data set [1] was “no effect”. Besides, the “effect on superoxide (ROS scavenging)” value in data set [2] is on record as “no effect”. The “inhibition of Nox4-dependent signaling” value in the data set on Nox4-dependent signaling is given as “profoundly inhibiting”. This compound also showed a cell viability in data set [3] (100 μM preincubation) of 92±3.09%.
`Cc1c2c(=O)n(-c3ccccc3Cl)[nH]c2cc(=O)n1Cc1ccccn1` [GKT136901]: the cell death result with hippocampal brain slices is reported as “significantly reduced”.
For the compound `O=C1N(c2ccc(C(F)(F)F)cc2)CCCN1S(=O)(=O)c1ccc(F)cc1` [Compound 24, 1-((4-Fluorophenyl)sulfonyl)-3-(4-(trifluoromethyl)phenyl)-tetrahydropyrimidin-2(1H)-one], the “effect on Nox4 expression (Nox4 mRNA)” value in the data set with Nox4 mRNA is “did not affect”. Also, the “effect on hydrogen peroxide” value in data set [1] is “no effect”. In addition, the “effect on superoxide (ROS scavenging)” value in data set [2] is recorded as “no effect”. Further, the “inhibition of Nox4-dependent signaling” value in the data set on Nox4-dependent signaling is reported as “profoundly inhibiting”. In data set [3] (100 μM preincubation), this compound came in with a cell viability of 100±0.97%.
